Source: ChEMBL document CHEMBL4732049, “Anti-tuberculosis activity and its structure-activity relationship (SAR) studies of oxadiazole derivatives: A key review” (Eur J Med Chem, 2021)
In brackets after ≈: the same amount, converted by molar mass.

What was measured:
[1] = test system: Mycobacterium tuberculosis; experiment: Antimycobacterial activity against Mycobacterium tuberculosis H37Rv incubated for 5 days by two-fold serial dilution method; assay type: functional; details: 120 h, time 5 day
[2] = test system: Mycobacterium tuberculosis; experiment: Antimycobacterial activity against Mycobacterium tuberculosis H37Rv ATCC 27294 incubated for 5 days by microplate alamar blue assay; assay type: functional; details: H37Rv ATCC 27294, 120 h, time 5 day
[3] = test system: Mycobacterium tuberculosis; experiment: Bactericidal activity against Mycobacterium tuberculosis H37Rv at 8 ug/ml measured within 7 days; assay type: functional; details: dose 8 µg/ml; time day <=7
[4] = test system: Mycobacterium tuberculosis; experiment: Antimycobacterial activity against Mycobacterium tuberculosis H37Rv; assay type: functional
[5] = test system: Mycobacterium tuberculosis; experiment: Antimycobacterial activity against Mycobacterium tuberculosis H37Rv incubated for 7 days by microplate alamar blue assay; assay type: functional; details: 168 h, time 7 day
CHO-K1 = experiment: Cytotoxicity against CHO-K1 cells incubated for 24 hrs by MTT assay; assay type: cell-based; details: Cricetulus griseus, CHO-K1, 24 h
[6] = Selectivity index, ratio of IC50 for CHO-K1 cells to MIC for Mycobacterium tuberculosis H37Rv; assay type: toxicity; details: hamster
[7] = test system: Mycobacterium tuberculosis; experiment: Antimycobacterial activity against Mycobacterium tuberculosis H37Rv incubated for 5 days by microplate alamar blue assay; assay type: functional; details: 120 h, time 5 day
[8] = Toxicity in brine shrimp nauplii assessed as induction of lethality incubated for 24 hrs by counting method; details: artemia salina
[9] = test system: Mycobacterium tuberculosis; experiment: Antimycobacterial activity against Mycobacterium tuberculosis H37Rv assessed as percentage inhibition at 250 ug/ml measured after 2 to 4 weeks by Lowensteine-Jensen method relative to control; assay type: functional; details: time 2-4 weeks
[10] = test system: Mycobacterium tuberculosis; experiment: Antimycobacterial activity against Mycobacterium tuberculosis H37Ra ATCC 25177 by two fold dilution technique; assay type: functional
[11] = test system: Mycobacterium tuberculosis; experiment: Antimycobacterial activity against Mycobacterium tuberculosis H37Ra ATCC 25177; assay type: functional
[12] = test system: Mycobacterium tuberculosis; experiment: Antimycobacterial activity against Mycobacterium tuberculosis 209 incubated for 6 days by resazurin microtiter assay; assay type: functional; details: Mycobacterium tuberculosis, 209, 144 h; time 6 day; read-out: MIC100
[13] = test system: Mycobacterium tuberculosis; experiment: Antimycobacterial activity against Mycobacterium tuberculosis H37Ra incubated for 6 days by resazurin microtiter assay; assay type: functional; details: 144 h, time 6 day
[14] = test system: Mycobacterium tuberculosis; experiment: Antimycobacterial activity against Mycobacterium tuberculosis H37Rv ATCC 27294 incubated for 6 days by resazurin microtiter assay; assay type: functional; details: H37Rv ATCC 27294, 144 h, time 6 day, read-out: MIC100
[15] = test system: Mycobacterium tuberculosis; experiment: Antimycobacterial activity against Mycobacterium tuberculosis H37Rv ATCC 27294 by agar dilution method; assay type: functional
Mycolicibacterium phlei = experiment: Antimycobacterial activity against Mycobacterium phlei incubated for 5 days by microplate alamar blue assay; assay type: functional; details: 120 h, time 5 day
[16] = test system: Mycobacterium tuberculosis; experiment: Antimycobacterial activity against Mycobacterium tuberculosis H37Rv ATCC 27294; assay type: functional
[17] = test system: Mycolicibacterium smegmatis; experiment: Antimycobacterial activity against Mycobacterium smegmatis ATCC607 incubated for 16 to 24 hrs by microdilution liquid method; assay type: functional; details: time 16-24 hrs
[18] = test system: Mycobacterium tuberculosis; experiment: Antimycobacterial activity against Mycobacterium tuberculosis; assay type: functional, organism-based

## c1csc(-c2nnc(Cc3cccc4ccccc34)o2)c1
[1]
  MIC: 0.4 µM (≈ 0.117 µg/mL)

## CN1CCN(Cc2nnc(-c3ccccc3)o2)CC1
[2]
  MIC: 1.6 µg/mL (≈ 6.19 µM)

## O=C(Nc1nnc(-c2ccc(F)cc2)o1)c1ccc(Cl)cc1
[3]
  Activity: >90%
[4]
  MIC: 1.6 µg/mL (≈ 5.04 µM)

## Oc1ccc(-c2nnc(S)o2)cc1
[5]
  MIC: 0.6 µg/mL (≈ 3.09 µM)
CHO-K1
  IC50: 23.8 µg/mL (≈ 123 µM)
[6]
  selectivity ratio: 39

## Fc1ccc(-c2nnc(-c3n[nH]cc3-c3ccc(Cl)cc3)o2)cc1
[2]
  MIC: 25 µg/mL (≈ 73.4 µM)

## N#Cc1ccc(-c2nnc(-c3n[nH]cc3-c3ccc(Cl)cc3)o2)cc1
[2]
  MIC: 25 µg/mL (≈ 71.9 µM)

## Cn1c(-c2cccc(Cl)c2Cl)nc2cc(-c3nc(-c4ccc(Cl)cc4)no3)ccc21
[7]
  MIC: 1.6 µg/mL (≈ 3.51 µM)

## Cn1c(-c2cccc(Cl)c2Cl)nc2cc(-c3nc(-c4ccccc4Cl)no3)ccc21
[7]
  MIC: 1.6 µg/mL (≈ 3.51 µM)

## Cn1c(-c2cccc(Cl)c2F)nc2cc(-c3nc(-c4ccc(Cl)cc4)no3)ccc21
[7]
  MIC: 1.6 µg/mL (≈ 3.64 µM)

## Cc1ccc2nc(Cl)c(CN(c3ccccc3)c3nnc(-c4cccnc4)o3)cc2c1
[8]
  LC50 at 24 h: 26 µM
[9]
  inhibition at 250 µg/mL: 96%

## Clc1ccc2nc(Cl)c(CN(c3ccccc3)c3nnc(-c4cccnc4)o3)cc2c1
[8]
  LC50 at 24 h: 26 µM
[9]
  inhibition at 250 µg/mL: 96%

## Cc1nn(-c2ccccc2)c(Oc2cccc(C(F)(F)F)c2)c1-c1nnc(-c2ccc(Br)cc2)o1
[9]
  inhibition at 250 µg/mL: 91%

## Cc1ccc(-c2nnc(-c3c(C)nn(-c4ccccc4)c3Oc3cccc(F)c3)o2)cc1
[9]
  inhibition at 250 µg/mL: > 90%

## Cc1ccc(-c2nnc(-c3c(C)nn(-c4ccccc4)c3Oc3ccc(F)cc3)o2)cc1
[9]
  inhibition at 250 µg/mL: > 90%

## Cc1nn(-c2ccccc2)c(Oc2ccc(F)cc2)c1-c1nnc(-c2ccc(Br)cc2)o1
[9]
  inhibition at 250 µg/mL: 91%

## CC1(C)Cc2c(C#CCO)c(NC(=O)C(C)(C)C)cc(-c3nnc(-c4ccc(C(F)(F)F)cc4)o3)c2O1
[10]
  MIC: 2 µg/mL (≈ 3.89 µM)
[11]
  IC90: 5.7 µM

## Clc1nc2ccccc2cc1CN(c1ccccc1)c1nnc(-c2cccnc2)o1
[8]
  LC50 at 24 h: 26 µM
[9]
  inhibition at 250 µg/mL: 96%

## O=C(Nc1nnc(-c2ccc(Cl)cc2)o1)c1ccc([N+](=O)[O-])s1
[12]
  MIC: 7.8 µg/mL (≈ 22.2 µM)
[13]; read-out: MIC100
  MIC: 7.8 µg/mL (≈ 22.2 µM)
[14]
  MIC: 7.8 µg/mL (≈ 22.2 µM)

## CN1CCN(Cc2nnc(-c3ccc(Cl)cc3)o2)CC1
[2]
  MIC: 3.12 µg/mL (≈ 10.7 µM)

## COc1ccc(-c2cc(-c3nnc(C)o3)nn2-c2ccc(NC(=O)c3ccc(F)cc3)cc2)cc1
[15]
  MIC: > 50 µg/mL

## O=C(Nc1nnc(-c2ccc(Cl)cc2)o1)c1ccc([N+](=O)[O-])[nH]1
[12]
  MIC: 7.8 µg/mL (≈ 23.4 µM)
[13]; read-out: MIC
  MIC: 7.8 µg/mL (≈ 23.4 µM)
[14]
  MIC: 31.2 µg/mL (≈ 93.6 µM)

## Cc1nnc(-c2cc(-c3ccc(Cl)cc3)n(-c3ccc(NC(=O)c4ccccc4Cl)cc3)n2)o1
[15]
  MIC: 1.56 µg/mL (≈ 3.18 µM)

## O=C(Nc1nnc(-c2ccc(Cl)cc2)o1)c1ccc([N+](=O)[O-])o1
[12]
  MIC: 7.8 µg/mL (≈ 23.3 µM)
[13]; read-out: MIC100
  MIC: 7.8 µg/mL (≈ 23.3 µM)
[14]
  MIC: 7.8 µg/mL (≈ 23.3 µM)

## O=c1[nH]nc(Cc2coc3cc(Cl)ccc23)o1
[7]
  MIC: 3.12 µg/mL (≈ 12.5 µM)
Mycolicibacterium phlei
  MIC: 3.12 µg/mL (≈ 12.5 µM)

## O=C(Nc1nnc(-c2ccc(Cl)cc2)o1)c1cccc([N+](=O)[O-])c1
[12]
  MIC: 7.8 µg/mL (≈ 22.6 µM)
[13]; read-out: MIC100
  MIC: 7.8 µg/mL (≈ 22.6 µM)
[14]
  MIC: 7.8 µg/mL (≈ 22.6 µM)

## Cc1nn(-c2ccccc2)c(Oc2cccc(F)c2)c1-c1nnc(-c2ccccc2)o1
[9]
  inhibition at 250 µg/mL: 91%

## O=C(Nc1nnc(-c2ccc(Cl)cc2)o1)c1ccccc1
[12]
  MIC: 31.2 µg/mL (≈ 104 µM)
[14]
  MIC: 7.8 µg/mL (≈ 26 µM)

## CO[C@H]1O[C@H](Cc2nnc(C)o2)[C@H](OCc2ccccc2)[C@H](OCc2ccccc2)[C@H]1OCc1ccccc1
[16]
  MIC: 60 µM (≈ 31.8 µg/mL)

## COc1ccc(-c2cc(-c3nnc(C)o3)nn2-c2ccc(NC(=O)c3ccccc3)cc2)cc1
[15]
  MIC: > 50 µg/mL

## O=c1[nH]nc(Cc2coc3ccc(Cl)cc23)o1
[7]
  MIC: 3.12 µg/mL (≈ 12.5 µM)
Mycolicibacterium phlei
  MIC: 3.12 µg/mL (≈ 12.5 µM)

## COc1ccc(-c2nnc(CN3CCN(C)CC3)o2)cc1
[2]
  MIC: 3.12 µg/mL (≈ 10.8 µM)

## O=c1[nH]nc(Cc2coc3cc(Br)ccc23)o1
[7]
  MIC: 1.56 µg/mL (≈ 5.29 µM)
Mycolicibacterium phlei
  MIC: 1.56 µg/mL (≈ 5.29 µM)

## S=c1[nH]nc(CN2CCOCC2)o1
[17]
  MIC: 7.8 µg/mL (≈ 38.8 µM)

## Cc1cccc(Oc2c(-c3nnc(-c4ccc(F)cc4)o3)c(C)nn2-c2ccccc2)c1
[9]
  inhibition at 250 µg/mL: 91%

## S=c1[nH]nc(CN2CCSCC2)o1
[17]
  MIC: 7.8 µg/mL (≈ 35.9 µM)

## O=C(CCCC(F)(F)F)C1CCC(c2nc(-c3nccs3)no2)CC1 (stereo not given)
[18]
  IC50: 0.4 µM

## CN1CCN(Cc2nnc(-c3ccc(O)cc3)o2)CC1
[2]
  MIC: 3.12 µg/mL (≈ 11.4 µM)

## Cc1nnc(-c2cc(-c3ccc(Cl)cc3)n(-c3ccc(NC(=O)c4ccc(Cl)cc4)cc3)n2)o1
[15]
  MIC: 3.13 µg/mL (≈ 6.38 µM)

## NC(=O)c1cnccn1 [PYRAZINAMIDE]
[2]
  MIC: 3.12 µg/mL (≈ 25.3 µM)
[7]
  MIC: 3.12 µg/mL (≈ 25.4 µM)
Mycolicibacterium phlei
  MIC: 3.12 µg/mL (≈ 25.4 µM)

## CO[C@H]1/C=C/O[C@@]2(C)Oc3c(C)c(O)c4c(O)c(c(/C=N/N5CCN(C)CC5)c(O)c4c3C2=O)NC(=O)/C(C)=C\C=C\[C@H](C)[C@H](O)[C@@H](C)[C@@H](O)[C@@H](C)[C@H](OC(C)=O)[C@@H]1C [RIFAMPIN]
[5]
  MIC: 0.2 µg/mL (≈ 0.243 µM)
[9]
  inhibition at 250 µg/mL: 98%

## CN[C@@H]1[C@H](O[C@H]2[C@H](O[C@H]3[C@H](O)[C@@H](O)[C@H](N=C(N)N)[C@@H](O)[C@@H]3N=C(N)N)O[C@@H](C)[C@]2(O)C=O)O[C@@H](CO)[C@H](O)[C@H]1O [STREPTOMYCIN]
[17]
  MIC: 4 µg/mL (≈ 6.88 µM)
[7]
  MIC: 6.25 µg/mL (≈ 10.7 µM)
Mycolicibacterium phlei
  MIC: 6.25 µg/mL (≈ 10.7 µM)
